Results as given in PubChem BioAssay AID2060362 (Molecular Pharmacology Branch, DTP, NCI, 2025).

Tested on: 128128-338-R-J1-PDC spheroids, viability % test/control
Assay: Anticancer human tumor 128128-338-R-J1-PDC patient-derived melanoma cell line growth inhibition [TAK]
Settings: spheroids with HUVEC and MSC; for IC50: curve of first compound; for viability, T/C: stronger effect = lower value
Method in brief: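 Drug combinations, each paired with TAK-243 or ipatasertib, were tested on multi-cell spheroids of 60% malignant cells, 25% HUVEC and 15% hMSC. Top concentrations were at or near the clinical Cmax (10 microM if undetermined), decreasing by half-log; viability is given as % test/control.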

[1] = second compound 0.3 µM, first compound 0.0316 µM
[2] = second compound 0.3 µM, first compound 0.1 µM
[3] = second compound 0.3 µM, first compound 0.316 µM
[4] = second compound 0.3 µM, first compound 1 µM
[5] = second compound 0.3 µM, first compound 3.16 µM
[6] = second compound 0.3 µM, first compound 10 µM
[7] = second compound 0.949 µM, first compound 0.0316 µM
[8] = second compound 0.949 µM, first compound 0.1 µM
[9] = second compound 0.949 µM, first compound 0.316 µM
[10] = second compound 0.949 µM, first compound 1 µM
[11] = second compound 0.949 µM, first compound 3.16 µM
[12] = second compound 0.949 µM, first compound 10 µM
[13] = second compound 3 µM, first compound 0.0316 µM
[14] = second compound 3 µM, first compound 0.1 µM
[15] = second compound 3 µM, first compound 0.316 µM
[16] = second compound 3 µM, first compound 1 µM
[17] = second compound 3 µM, first compound 3.16 µM
[18] = second compound 3 µM, first compound 10 µM
[19] = second compound 9.49 µM, first compound 0.0316 µM
[20] = second compound 9.49 µM, first compound 0.1 µM
[21] = second compound 9.49 µM, first compound 0.316 µM
[22] = second compound 9.49 µM, first compound 1 µM
[23] = second compound 9.49 µM, first compound 3.16 µM
[24] = second compound 9.49 µM, first compound 10 µM
[25] = second compound 30 µM, first compound 0.0316 µM
[26] = second compound 30 µM, first compound 0.1 µM
[27] = second compound 30 µM, first compound 0.316 µM
[28] = second compound 30 µM, first compound 1 µM
[29] = second compound 30 µM, first compound 3.16 µM
[30] = second compound 30 µM, first compound 10 µM
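Also: spheroids exposed to compounds for 7 days.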
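For viability, T/C in this document: 100% = DMSO vehicle wells.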

`CC(C)(C)c1nc(-c2cccc(NS(=O)(=O)c3c(F)cccc3F)c2F)c(-c2ccnc(N)n2)s1` + CC(C)NCC(C(=O)N1CCN(c2ncnc3c2C(C)CC3O)CC1)c1ccc(Cl)cc1 was tested, and the IC50 (second compound 0.3 µM) was 46 nM, the IC50 (second compound 0.949 µM) was 41.2 nM and the IC50 (second compound 3 µM) was < 31.6 nM. The IC50 (second compound 9.49 µM) was < 31.6 nM, the IC50 (second compound 30 µM) was < 31.6 nM and the viability, T/C [1] was 61%. The viability, T/C [2] was 27.1%, the viability, T/C [3] was 6.08% and the viability, T/C [4] was 1.93%. The viability, T/C [5] was 1.83%, the viability, T/C [6] was 8.83% and the viability, T/C [7] was 58.6%. It also gave a viability, T/C [8] of 21%, a viability, T/C [9] of 2.85% and a viability, T/C [10] of 1.56%. The viability, T/C [11] was 0.98%, the viability, T/C [12] was 2.06% and the viability, T/C [13] was 29.6%. The viability, T/C [14] was 8.97%, the viability, T/C [15] was 1.74% and the viability, T/C [16] was 1.17%. For the same molecule, the viability, T/C [17] was 0.79%, the viability, T/C [18] was 0.99% and the viability, T/C [19] was 12.7%. The viability, T/C [20] was 1.27%, the viability, T/C [21] was 1.2% and the viability, T/C [22] was 0.7%. For the same molecule, the viability, T/C [23] was 0.6%, the viability, T/C [24] was 0.64% and the viability, T/C [25] was 0.69%. The viability, T/C [26] was 0.56%, the viability, T/C [27] was 0.78% and the viability, T/C [28] was 0.44%. For the same molecule, the viability, T/C [29] was 0.34% and the viability, T/C [30] was 0.42%.
`CC(C)n1nc(-c2ccc3oc(N)nc3c2)c2c(N)ncnc21` + CC(C)NCC(C(=O)N1CCN(c2ncnc3c2C(C)CC3O)CC1)c1ccc(Cl)cc1 gave an IC50 (second compound 0.3 µM) of 15.4 nM, an IC50 (second compound 0.949 µM) of 14.1 nM and an IC50 (second compound 3 µM) of 7.82 nM. For the same molecule, the IC50 (second compound 9.49 µM) was 1.81 nM, the IC50 (second compound 30 µM) was < 0.316 nM and the viability, T/C (second compound 0.3 µM, first compound 0.000316 µM) was 96%. The viability, T/C (second compound 0.3 µM, first compound 0.001 µM) was 96.5%, the viability, T/C (second compound 0.3 µM, first compound 0.00316 µM) was 89.6% and the viability, T/C (second compound 0.3 µM, first compound 0.01 µM) was 59.2%. The viability, T/C [1] was 31.3%, the viability, T/C [2] was 6.8% and the viability, T/C (second compound 0.949 µM, first compound 0.000316 µM) was 88.9%. It also gave a viability, T/C (second compound 0.949 µM, first compound 0.001 µM) of 95.8%, a viability, T/C (second compound 0.949 µM, first compound 0.00316 µM) of 80.1% and a viability, T/C (second compound 0.949 µM, first compound 0.01 µM) of 58.4%. For the same molecule, the viability, T/C [7] was 29%, the viability, T/C [8] was 4.5% and the viability, T/C (second compound 3 µM, first compound 0.000316 µM) was 88.5%. It also gave a viability, T/C (second compound 3 µM, first compound 0.001 µM) of 77.5%, a viability, T/C (second compound 3 µM, first compound 0.00316 µM) of 68.5% and a viability, T/C (second compound 3 µM, first compound 0.01 µM) of 47%. It also gave a viability, T/C [13] of 18%, a viability, T/C [14] of 4.85% and a viability, T/C (second compound 9.49 µM, first compound 0.000316 µM) of 66.6%. For the same molecule, the viability, T/C (second compound 9.49 µM, first compound 0.001 µM) was 57.3%, the viability, T/C (second compound 9.49 µM, first compound 0.00316 µM) was 43% and the viability, T/C (second compound 9.49 µM, first compound 0.01 µM) was 17.2%. The viability, T/C [19] was 5.97%, the viability, T/C [20] was 0.5% and the viability, T/C (second compound 30 µM, first compound 0.000316 µM) was 16.4%. The viability, T/C (second compound 30 µM, first compound 0.001 µM) was 18.2%, the viability, T/C (second compound 30 µM, first compound 0.00316 µM) was 11.7% and the viability, T/C (second compound 30 µM, first compound 0.01 µM) was 2.86%. The viability, T/C [25] was 0.38% and the viability, T/C [26] was 0.2%.
`CCCS(=O)(=O)Nc1ccc(F)c(C(=O)c2c[nH]c3ncc(-c4ccc(Cl)cc4)cc23)c1F` + CC(C)NCC(C(=O)N1CCN(c2ncnc3c2C(C)CC3O)CC1)c1ccc(Cl)cc1 gave an IC50 (second compound 0.3 µM) of 1070 nM, an IC50 (second compound 0.949 µM) of 1110 nM and an IC50 (second compound 3 µM) of 462 nM. The IC50 (second compound 9.49 µM) was < 316 nM, the IC50 (second compound 30 µM) was < 316 nM and the viability, T/C [3] was 82.5%. The viability, T/C [4] was 52.1%, the viability, T/C [5] was 12.2% and the viability, T/C [6] was 0.57%. For the same molecule, the viability, T/C (second compound 0.3 µM, first compound 31.6 µM) was 0.08%, the viability, T/C (second compound 0.3 µM, first compound 100 µM) was 0.68% and the viability, T/C [9] was 74.3%. For the same molecule, the viability, T/C [10] was 54.4%, the viability, T/C [11] was 7.73% and the viability, T/C [12] was 0.33%. The viability, T/C (second compound 0.949 µM, first compound 31.6 µM) was 0.08%, the viability, T/C (second compound 0.949 µM, first compound 100 µM) was 0.4% and the viability, T/C [15] was 63.9%. It also gave a viability, T/C [16] of 22.1%, a viability, T/C [17] of 1.94% and a viability, T/C [18] of 0.06%. For the same molecule, the viability, T/C (second compound 3 µM, first compound 31.6 µM) was 0.03%, the viability, T/C (second compound 3 µM, first compound 100 µM) was 0.24% and the viability, T/C [21] was 30.6%. For the same molecule, the viability, T/C [22] was 9.75%, the viability, T/C [23] was 0.65% and the viability, T/C [24] was 0.02%. For the same molecule, the viability, T/C (second compound 9.49 µM, first compound 31.6 µM) was 0.03%, the viability, T/C (second compound 9.49 µM, first compound 100 µM) was 0.11% and the viability, T/C [27] was 2.32%. The viability, T/C [28] was 0.63%, the viability, T/C [29] was 0.12% and the viability, T/C [30] was 0.07%. For the same molecule, the viability, T/C (second compound 30 µM, first compound 31.6 µM) was 0.08% and the viability, T/C (second compound 30 µM, first compound 100 µM) was 0.12%.
